Among the data in ChEMBL document CHEMBL5360641, “4'-Ethynyl-2'-deoxy-2'-β-fluoro-2-fluoroadenosine: A Highly Potent and Orally Available Clinical Candidate for the Treatment of HIV-1 Infection” (J Med Chem, 2023) are EC50, CC50 and selectivity ratio values, retold here.

The subject of data set [1] is Human immunodeficiency virus 1. The data set is described as follows: Antiviral activity against HIV1 VSV-G pseudotyped virus infected in human HEK293T cells assessed as inhibition of viral growth preincubated for 3 hrs followed by washout and further incubated with compound for 72 hrs by luciferase assay. Type of data set: functional, organism-based. To be noted: Human immunodeficiency virus 1, HEK-293T.

The nature of data set [2]: Cytotoxicity against HEK293T cells assessed as reduction in cell viability by MTT assay. Type of data set: toxicity, cell-based, HEK-293T. The settings on record: human. For orientation: Tetrazolium assays rely on reduction of a dye to a coloured formazan, in cell work by metabolically active cells.
A short description of data set [3]: Selectivity index, ratio of CC50 for cytotoxicity against HEK293T cells assessed as reduction in cell viability by MTT assay to EC50 for antiviral activity against HIV1 VSV-G pseudotyped virus infected in human HEK293T cells assessed as inhibition of viral growth. Type of data set: toxicity, cell-based. The settings on record: read-out: Ratio CC50/EC50.
The test system of data set [4] is Human immunodeficiency virus 1. The data set is described as follows: Antiviral activity against HIV1 IIIB infected in human C8166 cells assessed as inhibition of syncytia formation incubated for 3 to 7 days by syncytia assays. Format: functional, organism-based. To be noted: Human immunodeficiency virus 1, IIIB.
The subject of data set [5] is Human immunodeficiency virus 1. The data set is described as follows: Antiviral activity against HIV1 IIIB infected in human C8166 cells assessed as inhibition of viral replication by measuring reduction in p24 antigen level incubated for 3 to 7 days by ELISA analysis. Format: functional, organism-based. The settings on record: Human immunodeficiency virus 1, IIIB. A general note: In an ELISA, binding on a coated surface is turned into a signal by an enzyme label.

Data set [6] relates to Human immunodeficiency virus 1. As to the kind of experiment: Antiviral activity against HIV1 IIIB infected in human MT4 cells assessed as inhibition of viral replication incubated for 3 to 7 days by MTT analysis. The settings on record: Human immunodeficiency virus 1, IIIB. Format: functional, organism-based.
The subject of data set [7] is Human immunodeficiency virus 1. The data set is described as follows: Antiviral activity against HIV1 4755-5 infected in human C8166 cells assessed as inhibition of viral replication by measuring reduction in p24 antigen level incubated for 3 to 7 days by ELISA analysis. The settings on record: Human immunodeficiency virus 1, 4755-5, C8166. Format: functional, organism-based.

In data set [8] the test system is Human immunodeficiency virus 1. As to the kind of experiment: Antiviral activity against HIV-1 harboring integrase G140S/Q148H double mutant infected in human TZM-bl cells assessed as inhibition of viral replication incubated for 3 to 7 days by luciferase assay. The settings on record: Human immunodeficiency virus 1, TZM-bl. Type of data set: functional, organism-based.

For data set [9], the system named is Human immunodeficiency virus 1. As to the kind of experiment: Antiviral activity against HIV1 TC-1 infected in human PBMC assessed as inhibition of viral replication by measuring reduction in p24 antigen level incubated for 3 to 7 days by ELISA analysis. Type of data set: functional, organism-based. To be noted: Human immunodeficiency virus 1, TC-1, PBMC.
In data set [10] the test system is Human immunodeficiency virus 1. The data set is described as follows: Antiviral activity against HIV1 KIZ001 infected in human PBMC assessed as inhibition of viral replication by measuring reduction in p24 antigen level incubated for 3 to 7 days by ELISA analysis. The settings on record: Human immunodeficiency virus 1, KIZ001, PBMC. Format: functional, organism-based.

Data set [11] concerns Human immunodeficiency virus 1. The data set is described as follows: Antiviral activity against HIV1 WAN infected in human PBMC assessed as inhibition of viral replication by measuring reduction in p24 antigen level incubated for 3 to 7 days by ELISA analysis. Type of data set: functional, organism-based. To be noted: Human immunodeficiency virus 1, WAN.

Each structure is given as a SMILES string. pEC50: −log10 of the molar value.

By pEC50 is commonly meant the EC50 on a negative log10 scale, so that one unit is a factor of ten. A word on the CC50: it is the concentration giving 50% cytotoxicity.

On to `[N-]=[N+]=N[C@]1(CO)O[C@@H](n2cnc3c(N)nc(F)nc32)[C@@H](F)[C@@H]1O`, for which, in data set [1], the pEC50 was 8.70. Moreover, the CC50 in data set [2] is greater than 100000 nM. In addition, the selectivity ratio in [3] was greater than 50300.
For `C#C[C@]1(CO)O[C@@H](n2cnc3c(N)ncnc32)[C@@H](F)[C@@H]1O`, in that order: 8.64, 56500 nM and 24600.
In the same order, the values of `COc1nc(N)c2ncn([C@@H]3O[C@@](CO)(N=[N+]=[N-])[C@@H](O)[C@@H]3F)c2n1` are 8.35, greater than 100000 nM and greater than 22400.
For the compound `Nc1ccn([C@@H]2CS[C@H](CO)O2)c(=O)n1` [LAMIVUDINE], the pEC50 was 6.77 in [1]; 6.70 in data set [4]; 6.07 in data set [5]; 6.78 in data set [6]; less than 3.70 in data set [7]; 6.86 in [8]. Further, the negative logarithm of the EC50 (pEC50) in data set [9] was 6.68; in data set [10] it was 7.14; in data set [11], 6.27. The CC50 in data set [2] was greater than 100000 nM. For the same compound, the selectivity ratio in data set [3] was greater than 588.
